Experimental findings from ChEMBL document CHEMBL1154459, “Synthesis and evaluation of a series of benzopyran derivatives as PPAR alpha/gamma agonists” (Eur J Med Chem, 2008) are described below.

Calls of active or inactive are those of the source. No cut-off for these calls is given here.

The term EC50 denotes the midpoint of the concentration-response curve. A high value points to a need for much substance.

The target in test [1] is T1, Peroxisome proliferator-activated receptor alpha (Homo sapiens) (UniProt Q07869).
T1 sequence (whole entry): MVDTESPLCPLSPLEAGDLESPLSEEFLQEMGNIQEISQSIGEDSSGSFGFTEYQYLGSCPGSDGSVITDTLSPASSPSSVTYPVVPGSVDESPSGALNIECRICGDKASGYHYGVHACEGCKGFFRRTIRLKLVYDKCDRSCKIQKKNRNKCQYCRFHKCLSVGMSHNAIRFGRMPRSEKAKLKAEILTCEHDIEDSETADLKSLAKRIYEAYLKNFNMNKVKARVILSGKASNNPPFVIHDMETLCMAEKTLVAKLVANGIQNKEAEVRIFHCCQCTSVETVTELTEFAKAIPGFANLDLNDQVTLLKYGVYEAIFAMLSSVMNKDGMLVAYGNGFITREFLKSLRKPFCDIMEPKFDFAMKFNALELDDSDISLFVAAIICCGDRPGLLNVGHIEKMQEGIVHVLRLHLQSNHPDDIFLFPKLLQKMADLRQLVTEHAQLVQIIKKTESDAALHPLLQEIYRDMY
Kind of test: Agonist activity at human PPARalpha in U2OS cells by transactivation assay relative to WY-14643. The class given is functional, cell-based.

Test [2] concerns the target T2, Peroxisome proliferator-activated receptor gamma (Homo sapiens, UniProt P37231).
T2 sequence (P37231 whole entry): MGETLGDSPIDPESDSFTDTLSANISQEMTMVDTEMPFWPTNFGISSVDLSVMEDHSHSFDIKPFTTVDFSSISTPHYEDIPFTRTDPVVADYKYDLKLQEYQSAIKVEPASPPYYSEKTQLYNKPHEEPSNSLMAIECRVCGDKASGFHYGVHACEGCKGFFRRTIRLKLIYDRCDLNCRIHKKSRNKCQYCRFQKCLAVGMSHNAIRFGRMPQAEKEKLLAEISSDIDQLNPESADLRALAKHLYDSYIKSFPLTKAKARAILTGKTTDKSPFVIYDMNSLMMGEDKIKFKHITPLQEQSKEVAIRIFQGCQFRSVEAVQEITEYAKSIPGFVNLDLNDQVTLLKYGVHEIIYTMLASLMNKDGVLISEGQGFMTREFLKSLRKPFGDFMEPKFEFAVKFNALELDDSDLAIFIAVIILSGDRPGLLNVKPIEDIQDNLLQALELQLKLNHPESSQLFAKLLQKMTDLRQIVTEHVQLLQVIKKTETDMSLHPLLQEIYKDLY
Description: Agonist activity at human PPARgamma in U2OS cells by transactivation assay

Test [3] concerns the target T3, Peroxisome proliferator-activated receptor alpha (Homo sapiens, UniProt Q07869).
T3 sequence (Q07869 whole entry): T1 sequence (whole entry)
Kind of test: Agonist activity at human PPARalpha in U2OS cells by transactivation assay.

In turn, `COC(=O)c1cc2ccc(OCCc3nc(-c4ccc(F)cc4)oc3C)cc2oc1=O` gave a %max in test [1] of 44%. The EC50 in test [2] amounted to 1620 nM; in test [3], 70 nM.

`COC(=O)c1cc2ccc(OCCc3nc(-c4ccc(C)cc4)oc3C)cc2oc1=O` displayed a %max in test [1] of 65%. In addition, the EC50 in test [2] and in test [3] was 1 nM throughout.

In test [1], `COC(=O)c1cc2ccc(OCCc3nc(-c4ccc(OC)cc4)oc3C)cc2oc1=O` showed a %max of 163%. The figures for the EC50 in test [2] and in test [3] were 1 nM and 5250 nM, respectively.

On to `COC(=O)C1Cc2ccc(OCCc3nc(-c4ccc(C(C)(C)C)cc4)oc3C)cc2OC1=O` (stereo unspecified), for which the %max in test [1] was 26%. The EC50 in test [2] came out at 250 nM; in test [3] it was 100 nM.

On to `COC(=O)C1Cc2ccc(OCCc3nc(-c4cccc(C(F)(F)F)c4)oc3C)cc2OC1=O` (stereo unspecified), for which, in test [1], the %max was determined as 23%. Further, the EC50 in test [2] worked out at 160 nM; in test [3], 170 nM.

`COC(=O)c1cc2ccc(OCCc3nc(-c4ccc(-c5ccccc5)cc4)oc3C)cc2oc1=O`: the %max in test [1] came out at 116%. The results for the EC50 in test [2] and in test [3] were 1260 nM and 1230 nM, respectively.

Compound `COC(=O)c1cc2ccc(OCCc3nc(-c4cccc(C(F)(F)F)c4)oc3C)cc2oc1=O` showed a %max in test [1] of 21%. Moreover, the EC50 was found to be 420 nM in test [2] and 1200 nM in test [3].

Regarding `COC(=O)C1Cc2ccc(OCCc3nc(-c4ccc(OC)cc4)oc3C)cc2OC1=O` (stereo unspecified), the %max in test [1] was found to be 96%. The results for the EC50 in test [2] and in test [3] were 1 nM and 1740 nM, respectively.

Turning to `COC(=O)C1Cc2ccc(OCCc3nc(-c4ccc(-c5ccccc5)cc4)oc3C)cc2OC1=O` (stereo unspecified), the %max in test [1] was determined as 68%. In addition, the values for the EC50 in test [2] and in test [3] were 1120 nM and 910 nM, respectively.

On to `COC(=O)c1cc2ccc(OCCc3nc(-c4cccc([N+](=O)[O-])c4)oc3C)cc2oc1=O`, for which the “%max” value in test [1] is “inactive”. The EC50 in test [2] was 3550 nM; in test [3] (u2os), “Not Active”.

The compound `COC(=O)C1Cc2ccc(OCCc3nc(-c4ccc(F)cc4)oc3C)cc2OC1=O` (stereo unspecified) showed a %max in test [1] of 98%. In addition, the EC50 is 1 nM in test [2] and 100 nM in test [3].

For `COC(=O)C1Cc2ccc(OCCc3nc(-c4cccc(OC)c4)oc3C)cc2OC1=O` (stereo unspecified), in test [1], the %max worked out at 23%. The EC50 in test [2] is 100 nM; in test [3], 1200 nM.

`COC(=O)c1cc2ccc(OCCc3nc(-c4cccc(C)c4)oc3C)cc2oc1=O`: the “%max” value in test [1] is “inactive”. Further, the values for the EC50 in test [2] and in test [3] (u2os) were 1 nM and “Not Active”, respectively.

In test [1], `COC(=O)c1cc2ccc(OCCc3nc(-c4cccc(OC)c4)oc3C)cc2oc1=O` yielded a %max of 100%. For the same compound, the EC50 in test [2] came to 350 nM; in test [3], 1620 nM.

With `Cc1cccc(Nc2cc(Cl)nc(SCC(=O)O)n2)c1C`, in test [1], the %max came to 100%.

On to `COC(=O)C1Cc2ccc(OCCc3nc(-c4ccccc4)oc3C)cc2OC1=O` (stereo unspecified), for which the %max in test [1] is 42%. The EC50 in test [2] was 130 nM; in test [3], 140 nM.

With `COC(=O)C1Cc2ccc(OCCc3nc(-c4cccc(C)c4)oc3C)cc2OC1=O` (stereo unspecified), the %max in test [1] is 83%. Moreover, the EC50 in test [2] was 1 nM; in test [3] it was 1550 nM.

Regarding `COC(=O)C1Cc2ccc(OCCc3nc(-c4cccc(F)c4)oc3C)cc2OC1=O` (stereo unspecified), the %max in test [1] came out at 30%. Besides, the EC50 in test [2] turned out to be 170 nM; in test [3] it was 720 nM.

The compound `COC(=O)c1cc2ccc(OCCc3nc(-c4ccc(C(C)(C)C)cc4)oc3C)cc2oc1=O` registered a %max in test [1] of 90%. The concentration for a half-maximal effect (EC50) was 1740 nM in test [2] and 2290 nM in test [3].

With `COC(=O)c1cc2ccc(OCCc3nc(-c4cccc(F)c4)oc3C)cc2oc1=O`, the %max in test [1] is 38%. Moreover, the EC50 was found to be 960 nM in test [2] and 1290 nM in test [3].

In turn, `COC(=O)C1Cc2ccc(OCCc3nc(-c4ccc(C)cc4)oc3C)cc2OC1=O` (stereo unspecified) came in with a %max in test [1] of 94%. For the same compound, the EC50 in test [2] was 1 nM; in test [3], 910 nM.
